Laboratory results from patent EP4810500A1, “IMIDAZOL-2-ONE DERIVATIVE AND USE THEREOF IN MEDICINE” (Haisco Pharmaceutical Group Co., Ltd., priority 2023, dated 2025).

The compounds below were run against GLP-1R (Homo sapiens, UniProt P43220) (assay: In vitro activity assay (cAMP HTRF, HEK293-CRE-luc-GLP-1R cells)). Details: cAMP HTRF 665 nm/620 nm, 1 h incubation.
Type: cell-based
Design: expressed in transfected cells; host or cells: HEK293 (HEK293-CRE-luc-GLP-1R)
Protocol: HEK293-CRE-luc-GLP-1R cells were seeded into a 384-well cell culture plate (Greiner #781946) at a certain cell density (5 µL/well). 5 µl/well of 2× working solution was added to the 384-well microplate. The microplate was sealed with parafilm and incubated in a 37°C 5% CO2 incubator (Thermo) for 1 h. Subsequently, the detection was performed using the cAMP-GS HIRANGE KIT (PerkinElmer, 62AM6PEB), and detection reagents were prepared according to the kit instruction manual. After the incubation, the detection reagents were added to the 384-well microplate, and the microplate was incubated for 1 h at room temperature in the dark. HTRF signals at 665 nm and 620 nm were then measured using a multimode microplate reader. Data were exported from the microplate reader in Excel format. GraphPad Prism was opened. The logarithm of the sample concentration was calculated. Using the logarithm of concentration as the x-axis and the 665 nm/620 nm ratio as the y-axis, four-parameter logistic fitting was performed to obtain the EC50 value of the curve. Table 1: EC50 of compounds against GLP-1

Sequence of GLP-1R (P43220 24-463): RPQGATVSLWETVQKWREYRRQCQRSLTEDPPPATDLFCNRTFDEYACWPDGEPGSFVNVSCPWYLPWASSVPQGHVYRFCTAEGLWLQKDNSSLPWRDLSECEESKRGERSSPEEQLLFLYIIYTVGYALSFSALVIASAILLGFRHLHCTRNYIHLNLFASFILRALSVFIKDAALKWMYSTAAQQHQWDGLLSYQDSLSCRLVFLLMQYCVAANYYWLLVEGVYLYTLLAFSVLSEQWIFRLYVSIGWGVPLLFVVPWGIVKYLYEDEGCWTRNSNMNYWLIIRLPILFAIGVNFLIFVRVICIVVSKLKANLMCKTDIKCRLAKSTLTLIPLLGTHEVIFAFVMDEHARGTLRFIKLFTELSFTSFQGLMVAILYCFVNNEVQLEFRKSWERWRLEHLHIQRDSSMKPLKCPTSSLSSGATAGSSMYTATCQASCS

Row | SMILES | EC50
1 | Cc1cc(-n2nc3c(c2-n2ccn(-c4ccc5c(c4)N(C)C(=O)C54CCCC4)c2=O)[C@H](C)N(C(=O)c2cc4cc([C@H]5CCOC(C)(C)C5)ccc4n2[C@@]2(c4noc(=O)[nH]4)C[C@@H]2C)CC3)cc(C)c1F [Compound 5] | < 1 nM
2 | Cc1cc(-n2nc3c(c2-n2ccn(-c4ccc5c(c4F)N(C)C(=O)C54CCOCC4)c2=O)[C@H](C)N(C(=O)c2cc4cc([C@H]5CCOC(C)(C)C5)ccc4n2[C@@]2(c4noc(=O)[nH]4)C[C@@H]2C)CC3)cc(C)c1F [Compound 7] | < 1 nM
3 | [2H]C([2H])([2H])N1C(=O)C2(CCOCC2)c2ccc(-n3ccn(-c4c5c(nn4-c4cc(C)c(F)c(C)c4)CCN(C(=O)c4cc6cc([C@H]7CCOC(C)(C)C7)ccc6n4[C@@]4(c6noc(=O)[nH]6)C[C@@H]4C)[C@H]5C)c3=O)c(F)c21 [Compound 8] | < 1 nM
4 | Cc1cc(-n2nc3c(c2-n2ccn(-c4ccc5c(c4)N(C)C(=O)C54CCN(C(=O)C5CC5)CC4)c2=O)[C@H](C)N(C(=O)c2cc4cc([C@H]5CCOC(C)(C)C5)ccc4n2[C@@]2(c4noc(=O)[nH]4)C[C@@H]2C)CC3)cc(C)c1F [Compound 12] | < 1 nM
5 | Cc1cc(-n2nc3c(c2-n2ccn(-c4ccc5c(c4)N(C)C(=O)C54CCN(C(=O)[C@@H]5C[C@H]5F)CC4)c2=O)[C@H](C)N(C(=O)c2cc4cc([C@H]5CCOC(C)(C)C5)ccc4n2[C@@]2(c4noc(=O)[nH]4)C[C@@H]2C)CC3)cc(C)c1F [Compound 13] | < 1 nM
6 | Cc1cc(-n2nc3c(c2-n2ccn(-c4ccc5c(c4)N(C)C(=O)C54CCN(C(=O)N[C@@H]5C[C@@H]5F)CC4)c2=O)[C@H](C)N(C(=O)c2cc4cc([C@H]5CCOC(C)(C)C5)ccc4n2[C@@]2(c4noc(=O)[nH]4)C[C@@H]2C)CC3)cc(C)c1F [Compound 17] | < 1 nM
7 | Cc1cc(-n2nc3c(c2-n2ccn(-c4ccc5c(c4)N(C)C(=O)C54CCN(C(=O)C5COC5)CC4)c2=O)[C@H](C)N(C(=O)c2cc4cc([C@H]5CCOC(C)(C)C5)ccc4n2[C@@]2(c4noc(=O)[nH]4)C[C@@H]2C)CC3)cc(C)c1F [Compound 18] | < 1 nM
8 | Cc1cc(-n2nc3c(c2-n2ccn(-c4ccc5c(c4)N(C)C(=O)C54CCN(S(=O)(=O)C5CC5)CC4)c2=O)[C@H](C)N(C(=O)c2cc4cc([C@H]5CCOC(C)(C)C5)ccc4n2[C@@]2(c4noc(=O)[nH]4)C[C@@H]2C)CC3)cc(C)c1F [Compound 20] | < 1 nM
9 | Cc1cc(-n2nc3c(c2-n2ccn(-c4ccc5c(c4)N(C)C(=O)C54CCN(C(=O)C5C6COCC65)CC4)c2=O)[C@H](C)N(C(=O)c2cc4cc([C@H]5CCOC(C)(C)C5)ccc4n2[C@@]2(c4noc(=O)[nH]4)C[C@@H]2C)CC3)cc(C)c1F (stereo partly drawn) [Compound 22] | < 1 nM
10 | Cc1cc(-n2nc3c(c2-n2ccn(-c4ccc5c(c4)N(C)C(=O)C54CCN(C(=O)C5(c6ccccn6)CC5)CC4)c2=O)[C@H](C)N(C(=O)c2cc4cc([C@H]5CCOC(C)(C)C5)ccc4n2[C@@]2(c4noc(=O)[nH]4)C[C@@H]2C)CC3)cc(C)c1F [Compound 23] | < 1 nM
11 | Cc1cc(-n2nc3c(c2-n2ccn(-c4ccc5c(c4)N(C)C(=O)C54CCN(C(=O)c5cnn(C6CC6)c5)CC4)c2=O)[C@H](C)N(C(=O)c2cc4cc([C@H]5CCOC(C)(C)C5)ccc4n2[C@@]2(c4noc(=O)[nH]4)C[C@@H]2C)CC3)cc(C)c1F [Compound 25] | < 1 nM
12 | Cc1cc(-n2nc3c(c2-n2ccn(-c4ccc5c(c4)N(C)C(=O)C54CCN(C(=O)C56CC(F)(C5)C6)CC4)c2=O)[C@H](C)N(C(=O)c2cc4cc([C@H]5CCOC(C)(C)C5)ccc4n2[C@@]2(c4noc(=O)[nH]4)C[C@@H]2C)CC3)cc(C)c1F [Compound 26] | < 1 nM
13 | Cc1cc(-n2nc3c(c2-n2ccn(-c4ccc5c(c4)N(C)C(=O)C54CCN(C(=O)C5CCN(C(=O)C6CC6)CC5)CC4)c2=O)[C@H](C)N(C(=O)c2cc4cc([C@H]5CCOC(C)(C)C5)ccc4n2[C@@]2(c4noc(=O)[nH]4)C[C@@H]2C)CC3)cc(C)c1F [Compound 29] | < 1 nM
14 | Cc1cc(-n2nc3c(c2-n2ccn(-c4ccc5c(c4)N(C)C(=O)C54CCN(C(=O)c5cnn(C(F)F)c5)CC4)c2=O)[C@H](C)N(C(=O)c2cc4cc([C@H]5CCOC(C)(C)C5)ccc4n2[C@@]2(c4noc(=O)[nH]4)C[C@@H]2C)CC3)cc(C)c1F [Compound 30] | < 1 nM
15 | Cc1cc(-n2nc3c(c2-n2ccn(-c4ccc5c(c4)N(C)C(=O)C54CCN(C(=O)c5cnn(CC6CC6)c5)CC4)c2=O)[C@H](C)N(C(=O)c2cc4cc([C@H]5CCOC(C)(C)C5)ccc4n2[C@@]2(c4noc(=O)[nH]4)C[C@@H]2C)CC3)cc(C)c1F [Compound 32] | < 1 nM
16 | COP(=O)(OC)N1CCC2(CC1)C(=O)N(C)c1cc(-n3ccn(-c4c5c(nn4-c4cc(C)c(F)c(C)c4)CCN(C(=O)c4cc6cc([C@H]7CCOC(C)(C)C7)ccc6n4[C@@]4(c6noc(=O)[nH]6)C[C@@H]4C)[C@H]5C)c3=O)ccc12 [Compound 33] | < 1 nM
17 | Cc1cc(-n2nc3c(c2-n2ccn(-c4ccc5c(c4)N(C)C(=O)C54CCN(C(=O)C5(CF)CC5)CC4)c2=O)[C@H](C)N(C(=O)c2cc4cc([C@H]5CCOC(C)(C)C5)ccc4n2[C@@]2(c4noc(=O)[nH]4)C[C@@H]2C)CC3)cc(C)c1F [Compound 35] | < 1 nM
18 | Cc1cc(-n2nc3c(c2-n2ccn(-c4ccc5c(c4)N(C)C(=O)C54CCN(C(=O)COCC5CC5(F)F)CC4)c2=O)[C@H](C)N(C(=O)c2cc4cc([C@H]5CCOC(C)(C)C5)ccc4n2[C@@]2(c4noc(=O)[nH]4)C[C@@H]2C)CC3)cc(C)c1F (stereo partly drawn) [Compound 37] | < 1 nM
19 | [2H]C([2H])([2H])N1C(=O)C2(CCN(S(=O)(=O)C3CC3)CC2)c2ccc(-n3ccn(-c4c5c(nn4-c4cc(C)c(F)c(C)c4)CCN(C(=O)c4cc6cc([C@H]7CCOC(C)(C)C7)ccc6n4[C@@]4(c6noc(=O)[nH]6)C[C@@H]4C)[C@H]5C)c3=O)cc21 [Compound 38] | < 1 nM
20 | [2H]C([2H])([2H])N1C(=O)C2(CCN(C(=O)C3C4COCC43)CC2)c2ccc(-n3ccn(-c4c5c(nn4-c4cc(C)c(F)c(C)c4)CCN(C(=O)c4cc6cc([C@H]7CCOC(C)(C)C7)ccc6n4[C@@]4(c6noc(=O)[nH]6)C[C@@H]4C)[C@H]5C)c3=O)cc21 (stereo partly drawn) [Compound 39] | < 1 nM
21 | [2H]C([2H])([2H])N1C(=O)C2(CCN(C(=O)C3CC3F)CC2)c2ccc(-n3ccn(-c4c5c(nn4-c4cc(C)c(F)c(C)c4)CCN(C(=O)c4cc6cc(C7CCOC(C)(C)C7)ccc6n4C4(c6noc(=O)[nH]6)CC4C)C5C)c3=O)cc21 (stereo not drawn) [Compound 40] | < 1 nM
22 | C[C@H]1c2c(nn(-c3ccc(F)c(C4CC4)c3)c2-n2ccn(-c3ccc4c(c3F)N(C)C(=O)C43CCOCC3)c2=O)CCN1C(=O)c1cc2cc([C@H]3CCOC(C)(C)C3)ccc2n1[C@@]1(c2noc(=O)[nH]2)C[C@@H]1C [Compound 42] | < 1 nM
23 | [2H]C([2H])([2H])N1C(=O)C2(CCOCC2)c2ccc(-n3ccn(-c4c5c(nn4-c4ccc(F)c(C6CC6)c4)CCN(C(=O)c4cc6cc([C@H]7CCOC(C)(C)C7)ccc6n4[C@@]4(c6noc(=O)[nH]6)C[C@@H]4C)[C@H]5C)c3=O)c(F)c21 [Compound 43] | < 1 nM
24 | [2H]C([2H])([2H])N1C(=O)C2(CCOCC2)c2ccc(-n3ccn(-c4c5c(nn4-c4ccc(F)c(C6(F)CC6)c4)CCN(C(=O)c4cc6cc([C@H]7CCOC(C)(C)C7)ccc6n4[C@@]4(c6noc(=O)[nH]6)C[C@@H]4C)[C@H]5C)c3=O)cc21 [Compound 44] | < 1 nM
